Patent US9540647B2, “Methods and compositions for the treatment of cancer” (University of South Alabama, priority 2010, dated 2017)
Entries after “also recorded” stand apart in the source; their conditions may differ.

Assays:
[1] = test system: OPN, MMP9, and Cathepsin K (CTSK); experiment: OPN, MMP9 and Cathepsin K expression in osteoclasts (qRT-PCR); format: cell-based, murine; details: osteoclasts with breast cancer conditioned medium; relative to DM
Method: Quantitative RT-PCR (qRT-PCR)—cDNA was generated using High Capacity Reverse Transcriptase Kit (Applied Biosystems, Foster City, Calif.). Real time PCR was performed in two cycles using a BioRad iQ5 Real-Time Detection system (Bio-Rad, Hercules, Calif.): the first cycle of 95° C. for 10 mins followed by 40 repeats of the second cycle comprising 95° C. for 15 sec followed by 60° C. for 1 min. All reactions were done in triplicate. Transcript levels were normalized to GAPDH levels (dCT) which was used to calculate changes in gene expression (2-ddCT). […] Following the experimental regime as described herein (for Osteoclast differentiation/activity) RNA was isolated using Trizol (Invitrogen) and assessed as described herein. The details of the primers used were as follows: OPN (Spp1; Mm00436767_m1), Matrixmetalloprotease 9 (MMP9; Mm00600163_m1), Cathepsin K (Ctsk; Mm00484036_m1), SHH (Hs00179843_m1), GLI1 (Hs01110766_m1), OPN (Hs00959010_m1), hGAPDH (Hs99999905_m1) and GAPDH (Mm99999915_g1).

SHH and IHH = SHH and IHH protein expression in A2780 and A2780-CP70 cells (Western blot); format: cell-based, human; details: cyclopamine
c-jun = c-jun and c-fos protein expression and c-jun phosphorylation in A2780-CP70 cells (Western blot); format: cell-based, human; details: cyclopamine
Method: c-jun protein expression was assessed in cisplatin-treated A2780-CP70 cells using Western blot analysis.
Protein expression of c-fos and phosphorylation of c-jun in cyclopamine-treated A2780-CP70 cells was assessed using Western blot analysis. Protein levels for c-jun, c-fos, phosphorylated c-jun (Ser 63), phosphorylated c-jun (Ser 73), and phosphorylated c-jun (Thr 91, Thr 93) were tested in cytosolic, nuclear, and whole cell fractions at 0 hr, 6 hr, 24 hr, 48 hr, and 72 hr. Internal controls for cytosolic and nuclear fractions included α-tubulin and histone deacetylase 3.
Phosphorylation of c-jun in A2780-CP70 cells transfected with anti-GLI1 shRNA construct was assessed using Western blot analysis. Protein levels for c-jun, phosphorylated c-jun (Ser 63), phosphorylated c-jun (Ser 73), and phosphorylated c-jun (Thr 91, Thr 93) were examined at 0 hr, 6 hr, 24 hr, 48 hr, and 72 hr.

[2] = test system: MC3T3-E1 pre-osteoblast cells; experiment: Osteoblast differentiation and mineralization (ALP, Alizarin Red S, BSP, osteocalcin); format: cell-based, murine
Method: The procedure for differentiation of osteoblasts was standardized. MC3T3-E1 cells were cultured in the presence of ascorbic acid and β-glycerophosphate. Mineralization was examined by Alizarin RedS staining (Ueno, A., et al. (2001). Matrix Biol 20, 347-355; Lee, Y. K., et al. (2004). J Biomed Mater Res A 69, 188-195; Duarte, W. R., et al. (2003). S100A4: a novel negative regulator of mineralization and osteoblast differentiation. J Bone Miner Res 18, 493-501). Referring to FIG. 13 and FIG. 14, differentiation was evident by intense red staining in presence of differentiation medium and in differentiation medium containing SHH compared to the control, growth medium. This was also evident in the intensity of absorbance and in the numbers of mineralized nodules formed (counted under the microscope) (FIG. 15).
Induction of osteoblastic and osteoclastic differentiation—In order to test the effect of conditioned medium from the tumor cells on osteoblast differentiation, a double-strength differentiation medium (DM) was formulated for MC3T3 E1 Sc-14 cells. It comprised αMEM, 20% FBS, 50 μg/ml ascorbic acid and 20 mM β-glycerophosphate. Conditioned media and the double-strength DM were mixed in a 1:1 ratio. 1×DM was used as control. Similarly a double-strength differentiation medium was formulated for RAW 264.7 cell lines. It consisted of 20% FBS, 50 ng/ml of RANKL and 20 ng/ml of M-CSF added to the growth medium. Conditioned media from the tumor cells was mixed 1:1 with the double-strength DM. 1×DM was used as control. Osteoblast differentiation was assessed by alkaline phosphatase (ALP) activity assay in the perspective of total phosphatase. The functional assessment of osteoblast mineralization was quantified by staining with Alizarin Red S and scoring the number of mineralized nodules.
Quantitative RT-PCR (qRT-PCR)—cDNA was generated using High Capacity Reverse Transcriptase Kit (Applied Biosystems, Foster City, Calif.). Real time PCR was performed using a BioRad iQ5 Real-Time Detection system (Bio-Rad, Hercules, Calif.). All reactions were done in triplicate. OPN transcript levels were normalized to GAPDH levels (dCT) which was used to calculate changes in OPN expression (2-ddCT). […] The primers used included Sppl (OPN) (Mm 00436767_m1); Bglap (osteocalcin) (Mm 01741771_g1); IBSP (Mm 00492555_m1); PTHrP (Mm 00433057_m1); RANKL (Mm 00441906_m1); GAPDH (Mm 99999915_g1).

Compound	levels of CTSK [1]	levels of MMP9 [1]	levels of OPN [1]	IHH protein levels (SHH and IHH; 24 hr)	SHH protein levels (SHH and IHH; 24 hr)	IHH protein levels (SHH and IHH; 48 hr and 72 hr)	SHH protein levels (SHH and IHH; 48 hr and 72 hr)	c-fos protein levels (c-jun)	phosphorylated c-jun (Ser 73) (c-jun)	phosphorylated c-jun (Thr 91, Thr 93) (c-jun)	expression of c-jun protein in nuclear fractions (c-jun; 0-72 hr)	phosphorylated c-jun (Ser 63) (c-jun; 0-72 hr)	c-jun protein levels (c-jun; cytosolic and nuclear fractions)	alkaline phosphatase (ALP) activity, osteoblast differentiation ([2]; DM supplemented with 100 nM recombinant ligand vs DM alone)	mineralized nodules / Alizarin Red staining ([2]; DM with recombinant ligand vs DM alone, 14 days)	expression of BSP ([2]; in presence of SHH, 14 days)	expression of osteocalcin ([2]; in presence of SHH, 14 days)
CC1=C2C[C@H]3[C@@H](CC=C4C[C@@H](O)CC[C@@]43C)[C@@H]2CC[C@]12O[C@@H]1C[C@H](C)CN[C@H]1[C@H]2C [cyclopamine]	significantly decreased	significantly decreased	significantly decreased	reduced	reduced	rebounded	rebounded	increased substantially at 6 hr	gradual increase in levels at 24 hour, 48 hr, and 72 hr	peak levels at 6 hr	peaked at 48 hr	no substantial expression was detected over 72 hr	increased in cytosolic and nuclear fractions at 48 hr and 72 hr	–	–	–	–
SHH: recombinant Sonic Hedgehog ligand (R & D Systems)	–	–	–	–	–	–	–	–	–	–	–	–	–	promotes differentiation; also recorded: significantly greater	promote differentiation; also recorded: significantly greater number of mineralized nodules	significantly elevated	significantly elevated
